Data published in US20200069691A1, “HETEROCYCLIC COMPOUNDS AS HIV PROTEASE INHIBITORS” (Merck Sharp & Dohme Corp., priority 2016, published 2020).

Target: T1, wild-type HIV-1 protease (Human immunodeficiency virus type 1 group M subtype B, UniProt P04585)
T1 construct: Escherichia coli expressed wild-type HIV-1 protease protein
Experiment: Assay for Inhibition of Microbial Expressed HIV Protease (peptide substrate cleavage, LC-MS/MS readout)
Format: biochemical
Settings: E. coli expressed wild-type HIV-1 protease, mean of at least two independent experiments, read-out: HIV Pr Enzyme HIV1 PR IC50
Summary of the method: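 E. coli-expressed wild-type HIV-1 protease ([…]) was preincubated with inhibitor 30 min at room temperature in pH 5.5 acetate buffer (100 mM NaCl, 0.1% BSA). Then 400 μM octapeptide substrate was added and reacted 1 h at 30 °C; inhibition came from LC-MS/MS product peak areas, mean of ≥2 experiments.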

Compound: CC(C)CC1(c2ccccc2)NC(=N)N(Cc2ccc(C(F)(F)F)c(C(=O)N3Cc4cnc(C#N)nc4C3)c2)C1=O (centres unmarked) [Compound 140, 6-{[5-{[2-imino-4-(2-methylpropyl)-5-oxo-4-phenylimidazolidin-1-yl]methyl}-2-(trifluoromethyl)phenyl]carbonyl}-6,7-dihydro-5H-pyrrolo[3,4-d]pyrimidine-2-carbonitrile]
- IC50: 0.00293 µM

Compound: N=C1NC(c2ccccc2)(c2ccccc2)C(=O)N1Cc1cccc(C(=O)N2CCc3ccc(F)cc3C2)c1 [Compound 269, 3-{3-[(7-fluoro-3,4-dihydroisoquinolin-2(1H)-yl)carbonyl]benzyl}-2-imino-5,5-diphenylimidazolidin-4-one]
- IC50: 0.0269 µM

Compound: N=C1N[C@](CCCC(F)(F)F)(c2ccc(F)cc2)C(=O)N1Cc1ccc(C(F)(F)F)c(C(=O)N2Cc3cnc(-c4cnn(CCN5CCOCC5)c4)nc3C2)c1 [Compound 33, (5R)-5-(4-fluorophenyl)-2-imino-3-[3-({2-[1-(2-morpholin-4-ylethyl)-1H-pyrazol-4-yl]-5,7-dihydro-6H-pyrrolo[3,4-d]pyrimidin-6-yl}carbonyl)-4-(trifluoromethyl)-benzyl]-5-(4,4,4-trifluorobutyl)-imidazolidin-4-one]
- IC50: 0.00326 µM

Compound: N=C1N[C@](CCC2CC2)(c2ccc(F)cc2)C(=O)N1[C@@H]1CCCc2ccc(C(=O)N3Cc4nccnc4C3)cc21 [Compound 129, (5R)-5-(2-cyclopropylethyl)-3-[(1R)-7-(5,7-dihydro-6H-pyrrolo[3,4-b]pyrazin-6-ylcarbonyl)-1,2,3,4-tetrahydronaphthalen-1-yl]-5-(4-fluorophenyl)-2-iminoimidazolidin-4-one]
- IC50: 0.0708 µM

Compound: N=C1N[C@](CCCC(F)(F)F)(c2ccc(F)cc2)C(=O)N1Cc1ccc(C(F)(F)F)c(C(=O)N2Cc3cnc(-c4cnn5c4CCCC5)nc3C2)c1 [Compound 28, (5R)-5-(4-fluorophenyl)-2-imino-3-[3-{[2-(4,5,6,7-tetrahydropyrazolo-[1,5-a]pyridin-3-yl)-5,7-dihydro-6H-pyrrolo[3,4-d]pyrimidin-6-yl]carbonyl}-4-(trifluoromethyl)-benzyl]-5-(4,4,4-trifluorobutyl)imidazolidin-4-one]
- IC50: 0.00304 µM

Compound: N=C1N[C@](CCCC(F)(F)F)(c2ccc(F)cc2)C(=O)N1Cc1ccc(C(F)(F)F)c(C(=O)N2Cc3cnc(-c4ccccc4)nc3C2)c1 [Compound 94, (5R)-5-(4-fluorophenyl)-2-imino-3-{3-[(2-phenyl-5,7-dihydro-6H-pyrrolo[3,4-d]pyrimidin-6-yl)carbonyl]-4-(trifluoromethyl)-benzyl}-5-(4,4,4-trifluorobutyl)-imidazolidin-4-one]
- IC50: 0.0192 µM

Compound: CC(C)CC[C@]1(c2ccccc2)NC(=N)N([C@@H]2CCS(=O)(=O)c3ccc(C(=O)N4Cc5nccnc5C4)cc32)C1=O [Compound 111, (5R)-3-[(4R)-6-(5,7-dihydro-6H-pyrrolo[3,4-b]pyrazin-6-ylcarbonyl)-1,1-dioxido-3,4-dihydro-2H-thiochromen-4-yl]-2-imino-5-(3-methylbutyl)-5-phenylimidazolidin-4-one]
- IC50: 0.0283 µM

Compound: N=C1N[C@](CCC2CC2)(c2cccc(F)c2)C(=O)N1Cc1ccc(C(F)(F)F)c(C(=O)N2CCn3c(nnc3C(F)(F)F)C2)c1 [Compound 103, (5R)-5-(2-cyclopropylethyl)-5-(3-fluorophenyl)-2-imino-3-[4-(trifluoromethyl)-3-{[3-(trifluoro-methyl)-5,6-dihydro[1,2,4]triazolo-[4,3-a]pyrazin-7(8H)-yl]carbonyl}-benzyl]imidazolidin-4-one]
- IC50: 0.0238 µM

Compound: CC(C)CCC1(c2ccccc2)NC(=N)N(Cc2cccc(C(=O)N3CCN(c4ncccn4)CC3)c2)C1=O (centres unmarked) [Compound 244, 2-imino-5-(3-methylbutyl)-5-phenyl-3-{3-[(4-pyrimidin-2-ylpiperazin-1-yl)carbonyl]benzyl} imidazolidin-4-one]
- IC50: 0.0168 µM

Compound: N=C1N[C@](CCCC(F)(F)F)(c2ccc(F)cc2)C(=O)N1Cc1ccc(C(F)(F)F)c(C(=O)N2Cc3cnc(NC4CCC4)nc3C2)c1 [Compound 85, (5R)-3-[3-{[2-(cyclobutylamino)-5,7-dihydro-6H-pyrrolo[3,4-d]pyrimidin-6-yl]carbonyl}-4-(trifluoromethyl)benzyl]-5-(4-fluorophenyl)-2-imino-5-(4,4,4-trifluorobutyl)imidazolidin-4-one]
- IC50: 0.0144 µM

Compound: N=C1NC(c2ccc(F)cc2)(c2ccc(F)cc2)C(=O)N1Cc1cccc(C(=O)N2CCN(c3ccccn3)CC2)c1 [Compound 285, 5,5-bis(4-fluorophenyl)-2-imino-3-{3-[(4-pyridin-2-ylpiperazin-1-yl)carbonyl]benzyl} imidazolidin-4-one]
- IC50: 0.0333 µM

Compound: N#Cc1ncc2c(n1)CN(C(=O)c1cc(CN3C(=N)NC(c4ccccc4)(c4ccccc4)C3=O)ccc1C(F)(F)F)C2 [Compound 136, 6-({5-[(2-imino-5-oxo-4,4-diphenylimidazolidin-1-yl)methyl]-2-(trifluoromethyl)phenyl}-carbonyl)-6,7-dihydro-5H-pyrrolo[3,4-d]pyrimidine-2-carbonitrile]
- IC50: 0.00181 µM

Compound: CC(=O)N1CCN(C(=O)c2cccc(CN3C(=N)NC(c4ccccc4)(c4ccccc4)C3=O)c2)CC1 [Compound 352, 3-{3-[(4-acetylpiperazin-1-yl)carbonyl]benzyl}-2-imino-5,5-diphenylimidazolidin-4-one]
- IC50: 0.0869 µM

Compound: N=C1NC(c2ccccc2)(c2ccccc2)C(=O)N1Cc1cccc(C(=O)N2Cc3cccc(F)c3C2)c1 [Compound 194, 3-{3-[(4-fluoro-1,3-dihydro-2H-isoindol-2-yl)carbonyl]benzyl}-2-imino-5,5-diphenylimidazolidin-4-one]
- IC50: 0.0357 µM

Compound: Cc1noc2ccc(-c3ncc4c(n3)CN(C(=O)c3cc(CN5C(=N)N[C@](CCCC(F)(F)F)(c6ccc(F)cc6)C5=O)ccc3C(F)(F)F)C4)cc12 [Compound 64, (5R)-5-(4-fluorophenyl)-2-imino-3-[3-{[2-(3-methyl-1,2-benzisoxazol-5-yl)-5,7-dihydro-6H-pyrrolo[3,4-d]pyrimidin-6-yl]carbonyl}-4-(trifluoromethyl)benzyl]-5-(4,4,4-trifluorobutyl)imidazolidin-4-one]
- IC50: 0.00709 µM

Compound: Cn1cc(-c2ncc3c(n2)CN(C(=O)c2cc(CN4C(=N)N[C@](CCCC(F)(F)F)(c5ccc(F)cc5)C4=O)ccc2C(F)(F)F)C3)cn1 [Compound 15, (5R)-5-(4-fluorophenyl)-2-imino-3-[3-{[2-(1-methyl-1H-pyrazol-4-yl)-5,7-dihydro-6H-pyrrolo[3,4-d]pyrimidin-6-yl]carbonyl}-4-(trifluoromethyl)benzyl]-5-(4,4,4-trifluorobutyl)imidazolidin-4-one]
- IC50: 0.00195 µM

Compound: N=C1N[C@](CCCC(F)(F)F)(c2ccc(F)cc2)C(=O)N1Cc1ccc(C(F)(F)F)c(C(=O)N2Cc3cnc(-c4ccsc4)nc3C2)c1 [Compound 63, (5R)-5-(4-fluorophenyl)-2-imino-3-{3-[(2-thiophen-3-yl-5,7-dihydro-6H-pyrrolo[3,4-d]pyrimidin-6-yl)carbonyl]-4-(trifluoromethyl)-benzyl}-5-(4,4,4-trifluorobutyl)-imidazolidin-4-one]
- IC50: 0.00694 µM

Compound: CC1c2cc(Cl)c(Cl)cc2CN1C(=O)c1cccc(CN2C(=N)NC(c3ccccc3)(c3ccccc3)C2=O)c1 (centres unmarked) [Compound 322, 3-{3-[(5,6-dichloro-1-methyl-1,3-dihydro-2H-isoindol-2-yl)carbonyl]benzyl}-2-imino-5,5-diphenylimidazolidin-4-one]
- IC50: 0.0569 µM

Compound: N=C1N[C@](CCCC(F)(F)F)(c2ccc(F)cc2)C(=O)N1Cc1ccc(C(F)(F)F)c(C(=O)N2Cc3cnc(-c4cnn(-c5cccc(Cl)c5)c4)nc3C2)c1 [Compound 133, (5R)-3-[3-({2-[1-(3-chlorophenyl)-1H-pyrazol-4-yl]-5,7-dihydro-6H-pyrrolo[3,4-d]pyrimidin-6-yl}carbonyl)-4-(trifluoromethyl)-benzyl]-5-(4-fluorophenyl)-2-imino-5-(4,4,4-trifluorobutyl)imidazolidin-4-one]
- IC50: 0.0868 µM

Compound: N#Cc1ncc2c(n1)CN(C(=O)c1cccc(CN3C(=N)NC(c4ccc(F)cc4)(c4ccc(F)cc4)C3=O)c1)C2 [Compound 182, 6-[(3-{[4,4-bis(4-fluorophenyl)-2-imino-5-oxoimidazolidin-1-yl]methyl}phenyl)carbonyl]-6,7-dihydro-5H-pyrrolo[3,4-d]pyrimidine-2-carbonitrile]
- IC50: 0.0017 µM

Compound: N=C1NC(c2ccc(F)cc2)(c2ccc(F)cc2)C(=O)N1Cc1cccc(C(=O)N2CCC(n3c(=O)[nH]c4nc(F)ccc43)CC2)c1 [Compound 316, 1-{1-[(3-{[4,4-bis(4-fluorophenyl)-2-imino-5-oxoimidazolidin-1-yl]methyl}phenyl)carbonyl]piperidin-4-yl}-5-fluoro-1,3-dihydro-2H-imidazo[4,5-b]pyridin-2-one]
- IC50: 0.0529 µM

Compound: CC(C)CC1(c2ccccc2)NC(=N)N(Cc2cccc(C(=O)N3CCN(c4ncccn4)CC3)c2)C1=O (centres unmarked) [Compound 303, 2-imino-5-(2-methylpropyl)-5-phenyl-3-{3-[(4-pyrimidin-2-ylpiperazin-1-yl)carbonyl]benzyl} imidazolidin-4-one]
- IC50: 0.0459 µM

Compound: CC(C)CC(c1ccc(C(F)(F)F)c(C(=O)N2CCn3c(nnc3C(F)(F)F)C2)c1)N1C(=N)N[C@](C[C@@H]2CCOC2)(c2ccc(F)cc2)C1=O (stereo partly drawn) [Compound 42, (5R)-5-(4-fluorophenyl)-2-imino-3-{3-methyl-1-[4-(trifluoromethyl)-3-{[3-(trifluoromethyl)-5,6-dihydro-[1,2,4]triazolo[4,3-a]pyrazin-7(8H)-yl]carbonyl}phenyl]butyl}-5-[(3R)-tetrahydrofuran-3-ylmethyl]-imidazolidin-4-one]
- IC50: 0.00426 µM
